Test results taken from patent US20070142295A1, “Thrombopoietic compounds” (AMGEN INC., priority 1998, published 2007).
Like-named read-outs stand apart in the source and are kept apart here. Positions of bridges follow the written chain, without caps; N, C: chain ends. Residues, ends and D or L forms follow the SMILES beside them. No end group written: not given here. PEG = not defined here

Experiments:
[1] = target: T1, human mpl receptor (Homo sapiens, UniProt P40238); test: TPO in vitro bioassay: mitogenic/cell-proliferation assay with IL-3 dependent murine 32D cells transfected with human mpl receptor; assay type: cell-based; settings: cell proliferation assay
T1 construct: murine 32D cells transfected with the full-length c-Mp1; expressed in transfected cells; host or cells: IL-3 dependent clone of murine 32D cells
T1 sequence (P40238 26-635): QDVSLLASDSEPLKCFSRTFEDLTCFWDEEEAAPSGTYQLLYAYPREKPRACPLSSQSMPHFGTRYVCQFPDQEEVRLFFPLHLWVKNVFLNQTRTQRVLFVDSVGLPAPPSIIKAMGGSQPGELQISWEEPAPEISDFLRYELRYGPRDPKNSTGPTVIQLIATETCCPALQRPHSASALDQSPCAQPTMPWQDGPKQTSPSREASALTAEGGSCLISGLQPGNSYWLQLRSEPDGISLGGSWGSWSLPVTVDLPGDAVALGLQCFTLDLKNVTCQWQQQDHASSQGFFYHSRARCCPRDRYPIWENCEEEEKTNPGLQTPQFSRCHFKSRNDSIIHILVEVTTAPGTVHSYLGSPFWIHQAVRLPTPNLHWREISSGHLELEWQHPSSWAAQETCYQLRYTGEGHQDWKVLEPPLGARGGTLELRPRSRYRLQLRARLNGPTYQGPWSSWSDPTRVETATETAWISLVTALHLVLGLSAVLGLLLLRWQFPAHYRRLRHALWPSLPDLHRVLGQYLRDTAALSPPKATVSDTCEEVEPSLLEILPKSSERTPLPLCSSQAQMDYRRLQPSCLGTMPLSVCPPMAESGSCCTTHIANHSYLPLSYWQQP
Method: Bioactivity assay. The TPO in vitro bioassay is a mitogenic assay utilizing an IL-3 dependent clone of murine 32D cells that have been transfected with human mpl receptor. This assay is described in greater detail in WO 95/26746. Cells are maintained in MEM medium containing 10% Fetal Clone II and 1 ng/ml mIL-3. Prior to sample addition, cells are prepared by rinsing twice with growth medium lacking mIL-3. An extended twelve point TPO standard curve is prepared, ranging from 3333 to 39 pg/ml. Four dilutions, estimated to fall within the linear portion of the standard curve, (1000 to 125 pg/ml), are prepared for each sample and run in triplicate. A volume of 100 μl of each dilution of sample or standard is added to appropriate wells of a 96 well microtiter plate containing 10,000 cells/well. After forty-four hours at 37° C. and 10% CO2, MTS (a tetrazolium compound which is bioreduced by cells to a formazan) is added to each well. Approximately six hours later, the optical density is read on a plate reader at 490 nm. A dose response curve (log TPO concentration vs. O.D.—Background) is generated and linear regression analysis of points which fall in the linear portion of the standard curve is performed. Concentrations of unknown test samples are determined using the resulting linear equation and a correction for the dilution factor.
The resulting peptides are readily accessible by conventional solid phase peptide synthesis methods (Merrifiled, R. B., Journal of the American Chemical Society 85:2149 (1963)) with either Fmoc or t-Boc chemistry. […] This might be due to differences in the conditions used in the two assays. […] It is interesting to note that a wide range of length is tolerated by the linker. The optimal linker with the selected TMP monomers (SEQ ID NO: 1) apparently is composed of 8 glycines.

[2] = target: T2, c-Mp1 (Homo sapiens, UniProt P40238); settings: cited from earlier work
T2 sequence (P40238 26-635): T1 sequence (P40238 26-635)

[3] = target: T2, c-Mp1; settings: cited from earlier work; remark: listed apart in the source
[4] = tested on: platelets; test: platelet production in normal mice, dose response with 7-day micro-osmotic pumps; assay type: in vivo
Method: Mice. Normal female BDF1 approximately 10-12 weeks of age.
Bleed schedule. Ten mice per group treated on day 0, two groups started 4 days apart for a total of 20 mice per group. Five mice bled at each time point, mice were bled a minimum of three times a week. Mice were anesthetized with isoflurane and a total volume of 140-160 μl of blood was obtained by puncture of the orbital sinus. Blood was counted on a Technicon HIE blood analyzer running software for murine blood. Parameters measured were white blood cells, red blood cells, hematocrit, hemoglobin, platelets, neutrophils.
Treatments. Mice were either injected subcutaneously for a bolus treatment or implanted with 7 day micro-osmotic pumps for continuous delivery. Subcutaneous injections were delivered in a volume of 0.2 ml. Osmotic pumps were inserted into a subcutaneous incision made in the skin between the scapulae of anesthetized mice. Compounds were diluted in PBS with 0.1% BSA. All experiments included one control group, labeled “carrier” that were treated with this diluent only. The concentration of the test articles in the pumps was adjusted so that the calibrated flow rate from the pumps gave the treatment levels indicated in the graphs.
Compounds. A dose titration of the compound was delivered to mice in 7 day micro-osmotic pumps. Mice were treated with various compounds at a single dose of 100 ug/kg in 7 day osmotic pumps. Some of the same compounds were then given to mice as a single bolus injection.

IEGPTLRQALAARAGGGGGGGGIEGPTLRQALAARA-OH [Peptide 16, IEGPTLRQALAARA-GGGGGGGG-IEGPTLRQALAARA]
in vitro bioactivity, in words [1]: inactive

TMP-GGGK(PEG)GGGG-TMP (IEGPTLRQWLAARAGGGK(PEG)GGGGIEGPTLRQWLAARA; reading uncertain) [Peptide 19]
in vitro bioactivity, in words [1]: higher in vitro bioactivity as compared to their unpegylated counterparts

CC[C@H](C)[C@H](N)C(=O)N[C@@H](CCC(=O)O)C(=O)NCC(=O)N1CCC[C@H]1C(=O)N[C@H](C(=O)N[C@@H](CC(C)C)C(=O)N[C@@H](CCCNC(=N)N)C(=O)N[C@@H](CCC(N)=O)C(=O)N[C@@H](CS)C(=O)N[C@@H](CC(C)C)C(=O)N[C@@H](C)C(=O)N[C@@H](C)C(=O)N[C@@H](CCCNC(=N)N)C(=O)N[C@@H](C)C(=O)NCC(=O)NCC(=O)NCC(=O)NCC(=O)NCC(=O)NCC(=O)NCC(=O)NCC(=O)N[C@H](C(=O)N[C@@H](CCC(=O)O)C(=O)NCC(=O)N1CCC[C@H]1C(=O)N[C@H](C(=O)N[C@@H](CC(C)C)C(=O)N[C@@H](CCCNC(=N)N)C(=O)N[C@@H](CCC(N)=O)C(=O)N[C@@H](CS)C(=O)N[C@@H](CC(C)C)C(=O)N[C@@H](C)C(=O)N[C@@H](C)C(=O)N[C@@H](CCCNC(=N)N)C(=O)N[C@@H](C)C(=O)O)[C@@H](C)O)[C@@H](C)CC)[C@@H](C)O [Peptide 15, IEGPTLRQCLAARA-GGGGGGGG-IEGPTLRQCLAARA] (H-IEGPTLRQCLAARAGGGGGGGGIEGPTLRQCLAARA-OH; N-terminus assumed)
in vitro bioactivity, in words [1]: inactive

CC[C@H](C)[C@H](N)C(=O)N[C@@H](CCC(=O)O)C(=O)NCC(=O)N1CCC[C@H]1C(=O)N[C@H](C(=O)N[C@@H](CC(C)C)C(=O)N[C@@H](CCCNC(=N)N)C(=O)N[C@@H](CCC(N)=O)C(=O)N[C@H]1CSSC[C@@H](C(=O)N[C@@H](CC(C)C)C(=O)N[C@@H](C)C(=O)N[C@@H](C)C(=O)N[C@@H](CCCNC(=N)N)C(=O)N[C@@H](C)C(=O)O)NC(=O)[C@H](CCC(N)=O)NC(=O)[C@H](CCCNC(=N)N)NC(=O)[C@H](CC(C)C)NC(=O)[C@H]([C@@H](C)O)NC(=O)[C@@H]2CCCN2C(=O)CNC(=O)[C@H](CCC(=O)O)NC(=O)[C@H]([C@@H](C)CC)NC(=O)CNC(=O)CNC(=O)CNC(=O)CNC(=O)CNC(=O)CNC(=O)CNC(=O)CNC(=O)[C@H](C)NC(=O)[C@H](CCCNC(=N)N)NC(=O)[C@H](C)NC(=O)[C@H](C)NC(=O)[C@H](CC(C)C)NC1=O)[C@@H](C)O [Peptide 14] (H-IEGPTLRQCLAARAGGGGGGGGIEGPTLRQCLAARA-OH; disulfide 9-31; N-terminus assumed)
in vitro bioactivity, in words [1]: inactive

IEGPTLRQWLAARAGGGNGSGGIEGPTLRQWLAARA-OH [Peptide 21, TMP-GGGNGSGG-TMP]
in vitro bioactivity, in words [1]: activity comparable to that of the -(Gly)8-linked analog

IEGPTLRQWLAARA-OH [TMP monomer, IEGPTLRQWLAARA]
EC50 [2]: 400 nM
IC50 ([3]; read-out: IC50): 2 nM

TMP-GGGC(PEG)GGGG-TMP (IEGPTLRQWLAARAGGGC(PEG)GGGGIEGPTLRQWLAARA; reading uncertain) [Peptide 20]
in vitro bioactivity, in words [1]: higher in vitro bioactivity as compared to their unpegylated counterparts
activity compared with unpegylated rHu-MGDF ([4]; 10 μg/kg/day vs 100 μg/kg/day unpegylated rHu-MGDF, same experiment): about equally active
percent of maximal activity ([4]; 10 μg/kg/day, 7-day micro-osmotic pumps): about 50%
dose at which the maximum effect was seen ([4]; 7-day micro-osmotic pumps, data not shown): 100 µg/kg/day

CC[C@H](C)[C@H](N)C(=O)N[C@@H](CCC(=O)O)C(=O)NCC(=O)N1CCC[C@H]1C(=O)N[C@H](C(=O)N[C@@H](CC(C)C)C(=O)N[C@@H](CCCNC(=N)N)C(=O)N[C@@H](CCC(N)=O)C(=O)N[C@@H](Cc1c[nH]c2ccccc12)C(=O)N[C@@H](CC(C)C)C(=O)N[C@@H](C)C(=O)N[C@@H](C)C(=O)N[C@@H](CCCNC(=N)N)C(=O)N[C@@H](C)C(=O)NCCCC[C@H](NC(=O)CCNC(=O)[C@H](C)NC(=O)[C@H](CCCNC(=N)N)NC(=O)[C@H](C)NC(=O)[C@H](C)NC(=O)[C@H](CC(C)C)NC(=O)[C@H](Cc1c[nH]c2ccccc12)NC(=O)[C@H](CCC(N)=O)NC(=O)[C@H](CCCNC(=N)N)NC(=O)[C@H](CC(C)C)NC(=O)[C@@H](NC(=O)[C@@H]1CCCN1C(=O)CNC(=O)[C@H](CCC(=O)O)NC(=O)[C@@H](N)[C@@H](C)CC)[C@@H](C)O)C(N)=O)[C@@H](C)O [TMP C-C dimer]
EC50 [2]: 0.1 nM
IC50 ([3]; read-out: binding affinity): 0.5 nM

IEGPTLRQWLAARAGPNGIEGPTLRQWLAARA-OH [Peptide 13, TMP-GPNG-TMP]
fold increase in potency as compared to the monomer [1]: about 100 fold
fold less active than the GGGG-linked analog [1]: > 10 fold
